System: Macrophages (RAW 264.7)
Test: adhesion structure assembly-mediated M2 phenotype under ROCK, myosin II or actin polymerization inhibition
Type: cell-based
Conditions: M2-polarizing medium; for reduction of Arg-1 immunofluorescence on the magnet side / reduction of adherent macrophage area on the magnet side / reduction of adherent macrophage aspect ratio on the magnet side: 36 hours, 50 μM Y27632, 10 μM blebbistatin

SMILES	reduction of Arg-1 immunofluorescence on the magnet side [%]	reduction of adherent macrophage area on the magnet side [%]	reduction of adherent macrophage aspect ratio on the magnet side [%]	decreases in the area, aspect ratio, and Arg-1 fluorescence of the adherent macrophages (2 μg/mL cytochalasin D)
C[C@@H](N)[C@H]1CC[C@H](C(=O)Nc2ccncc2)CC1 [Y27632]	29	32	33	–
Cc1ccc2c(c1)C(=O)C1(O)CCN(c3ccccc3)C1=N2 (stereo not shown) [blebbistatin]	29	33	31	–
C=C1[C@@H](C)[C@H]2[C@H](Cc3ccccc3)NC(=O)[C@]23[C@H](OC(C)=O)/C=C/[C@@](C)(O)C(=O)[C@@H](C)C/C=C/[C@H]3[C@@H]1O [cytochalasin D]	–	–	–	clearly observed
